Results as given in patent US20260108546A1 (ELI LILLY AND COMPANY, priority 2024, published 2026).

Target: T1, hGIP-R (Homo sapiens, UniProt P48546)
T1 construct: expressed in transfected cells; host or cells: HEK-293 clonal cell lines
T1 sequence (P48546 22-466): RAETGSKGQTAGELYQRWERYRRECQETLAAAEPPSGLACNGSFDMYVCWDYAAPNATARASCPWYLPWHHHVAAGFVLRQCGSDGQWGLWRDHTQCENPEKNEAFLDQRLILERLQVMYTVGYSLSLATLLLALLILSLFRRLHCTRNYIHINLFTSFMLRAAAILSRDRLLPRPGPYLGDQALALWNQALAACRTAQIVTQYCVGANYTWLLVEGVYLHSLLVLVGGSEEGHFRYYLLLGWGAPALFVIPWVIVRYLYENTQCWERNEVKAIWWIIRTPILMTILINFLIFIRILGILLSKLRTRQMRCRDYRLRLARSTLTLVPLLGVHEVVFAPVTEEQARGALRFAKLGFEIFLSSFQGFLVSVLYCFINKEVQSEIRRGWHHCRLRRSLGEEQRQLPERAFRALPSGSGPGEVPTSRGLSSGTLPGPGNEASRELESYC
Assay: Functional hGIP-R Assay (cAMP formation, HTRF)
Type: cell-based
Details: for Emax: cAMP efficacy, percent of maximal response to GIP(1-42)OH, 37° C., 0.1% bovine casein, arithmetic mean ± SEM; for EC50: cAMP potency, HEK-293 cells expressing hGIP-R, incubated at 37° C. in the presence of 0.1% bovine casein, geometric mean, read-out: Human GIP-R EC50, nM (SEM, n)
Procedure: Functional activity was determined using CAMP formation in HEK-293 clonal cell lines expressing hGIP-R. hGIP-R receptor expressing cells were treated with compound (20 point concentration-response curve in DMSO, 2-fold Labcyte Echo direct dilution, 384 well plate Corning Cat #3570) in DMEM (Gibco Cat #31053) supplemented with 1× GlutaMAX™ (Gibco Cat #35050), 0.1% bovine casein (Sigma C4765-10ML), 250 μM IBMX (3-Isobutyl-1-methylxanthine, Acros Cat #228420010) and 20 mM HEPES (Gibco Cat #15630) in a 20 μL assay volume (final DMSO concentration was 1%). After a 30 min incubation at 37° C., the resulting increase in intracellular cAMP was quantitatively determined using the Revvity CAMP Dynamic 2 HTRF Assay Kit (62AM4PEJ). Briefly, cAMP levels within the cell were detected by adding the cAMP-d2 conjugate in cell lysis buffer (10 μL) followed by the antibody anti-cAMP-Eu^3+-Cryptate, also in cell lysis buffer (10 μL). The resulting competitive assay was incubated for at least 60 min at RT, then detected using a BMG Labtech PHERAstar FSX instrument with excitation at 320 nm and emission at 665 nm and 620 nm. PHERAstar units (emission at 665 nm/620 nm*10,000) are inversely proportional to the amount of cAMP present and were converted to nM cAMP per well using a CAMP standard curve. The amount of cAMP generated (nM) in each well was converted to a percent of the maximal response observed with human GIP (1-42) OH. A relative EC50 value and percent top (Emax) were derived by non-linear regression analysis using the percent maximal response vs. the concentration of compound added, fitted to a four-parameter logistic equation.

Row | SMILES | Emax [%] | EC50 [nM]
1 | Cn1cc(C[C@@H](NC(=O)[C@H]2C[C@@H]2c2ccc(-c3cnc4nn(C)cc4c3)cc2)C(=O)NC(C)(C)Cn2nc(C(F)(F)F)cc2-c2ccn(C3CCOC3)n2)cn1 (mixture of isomers) [Example 53, (1S,2S)-N-((R)-1-((2-Methyl-1-(1-((RS)-tetrahydrofuran-3-yl)-5′-(trifluoromethyl)-1H,2′H-[3,3′-bipyrazol]-2′-yl)propan-2-yl)amino)-3-(1-methyl-1H-pyrazol-4-yl)-1-oxopropan-2-yl)-2-(4-(2-methyl-2H-pyrazolo[3,4-b]pyridin-5-yl)phenyl) cyclopropane-1-carboxamide, mixture of 2 diastereomers] | 123 ± 4.24 | 22.6
2 | Cn1cc(C[C@@H](NC(=O)[C@H]2C[C@@H]2c2ccc(-c3cnc4nn(C)cc4c3)cc2)C(=O)NC(C)(C)Cn2nc(C(F)(F)F)cc2-n2nccn2)cn1 (single isomer, unassigned) [Example 13] | 112 ± 0.275 | 49.7
3 | Cn1cc2cc(-c3ccc([C@H]4C[C@@]45CCN([C@H](Cc4cnn(C(F)F)c4)C(=O)NC(C)(C)Cn4nc(C(F)(F)F)cc4-c4cc(F)c(=O)n(C)c4)C5=O)c(F)c3)cnc2n1 (single isomer, unassigned; isomer 1) [Example 99] | 69.2 ± 0.431 | 6.84
4 | Cc1cn2cc(-c3ccc([C@H]4C[C@@]45CCN([C@H](Cc4cnn(C(F)F)c4)C(=O)NC(C)(C)Cn4nc(C(F)(F)F)cc4-c4cnc(C6CC6)nc4)C5=O)cc3)cnc2n1 (single isomer, unassigned; isomer 1) [Example 101] | 59.6 ± 0.0693 | 58.5
5 | Cc1cn2cc(-c3ccc([C@H]4C[C@@]45CCN([C@H](Cc4cnn(C(F)F)c4)C(=O)NC(C)(C)Cn4nc(C(F)(F)F)cc4-c4cnc(C(F)(F)F)nc4)C5=O)cc3)cnc2n1 (single isomer, unassigned; isomer 1) [Example 102] | 69.4 ± 0.0734 | 50.9
6 | CN1CC2C=C(c3ccc([C@H]4C[C@@]45CCN([C@H](Cc4cnn(C(F)F)c4)C(=O)NC(C)(C)Cn4nc(C(F)(F)F)cc4-c4cnc(C(F)(F)F)nc4)C5=O)cc3)C=NC2C1=O (single isomer, unassigned; isomer 1) [Example 103] | 73.3 ± 6.2 | 99.6
7 | Cn1cc(-c2cc(C(F)(F)F)nn2CC(C)(C)NC(=O)[C@@H](Cc2cnn(C(F)F)c2)N2CC[C@@]3(C[C@@H]3c3ccc(-c4cnc5nc(C(C)(C)O)ccc5c4)cc3)C2=O)ccc1=O (single isomer, unassigned; isomer 1) [Example 104] | 89 ± 1.12 | 54.6
8 | COc1cc2cc(-c3ccc([C@H]4C[C@@]45CCN([C@H](Cc4cnn(C(F)F)c4)C(=O)NC(C)(C)Cn4nc(C(F)(F)F)cc4-c4ccc(=O)n(C)c4)C5=O)cc3)cnc2nc1C (single isomer, unassigned; isomer 1) [Example 105] | 8.43 ± 1.23 | 49.8
9 | CN1CC(n2cc3cc(-c4ccc([C@H]5C[C@@]56CCN([C@H](Cc5cnn(C(F)F)c5)C(=O)NC(C)(C)Cn5nc(C(F)(F)F)cc5-c5cc(F)c(=O)n(C)c5)C6=O)c(F)c4)cnc3n2)C1 (single isomer, unassigned; isomer 1) [Example 106] | 77.3 ± 7.69 | 36.3
10 | Cn1cc(-c2cc(C(F)(F)F)nn2CC(C)(C)NC(=O)[C@@H](Cc2cnn(C(F)F)c2)N2CC[C@@]3(C[C@@H]3c3ccc(-c4cnc5nn(CCO)cc5c4)cc3F)C2=O)cc(F)c1=O (single isomer, unassigned; isomer 1) [Example 107] | 108 ± 0.709 | 36.2
11 | Cc1cn2cc(-c3ccc(C4CC45CCN([C@H](Cc4cnn(C(F)F)c4)C(=O)NC(C)(C)Cn4nc(C(F)(F)F)cc4-c4cc(F)c(=O)n(C)c4)C5=O)c(C(F)F)c3)cnc2n1 (single isomer, unassigned; isomer 1) [Example 108] | 81.7 ± 1.63 | 0.47
12 | Cc1cn2cc(-c3ccc(C4CC45CCN([C@H](Cc4cnn(C(F)F)c4)C(=O)NC(C)(C)Cn4nc(C(F)(F)F)cc4-c4cnc(C)nc4)C5=O)c(C)n3)cnc2n1 (single isomer, unassigned; isomer 1) [Example 110] | 50.8 ± 1.54 | 4.34
13 | Cc1ncc(-c2cc(C(F)(F)F)nn2CC(C)(C)NC(=O)[C@@H](Cc2cnn(C(F)F)c2)N2CCC3(CC3c3ccc(-c4cnc5nn(C)cc5c4)nc3C)C2=O)cn1 (single isomer, unassigned; isomer 1) [Example 111] | 28 ± 0.197 | 6.75
14 | Cc1ncc(-c2cc(C(F)(F)F)nn2CC(C)(C)NC(=O)[C@@H](Cc2cnn(C(F)F)c2)N2CCC3(CC3c3ccc(-c4cnc5nn(C)cc5c4)nc3C(F)(F)F)C2=O)cn1 (single isomer, unassigned; isomer 1) [Example 112] | 62 ± 0.9 | 3.21
15 | Cn1cc2cc(-c3ccc(C4CC45CCN([C@H](Cc4cnn(C(F)F)c4)C(=O)NC(C)(C)Cn4nc(C(F)(F)F)cc4-c4ccc(=O)n(C)c4)C5=O)c(C(F)(F)F)n3)cnc2n1 (single isomer, unassigned; isomer 1) [Example 113] | 45.5 ± 2.18 | 1.22
16 | [2H]C([2H])([2H])n1cc(C[C@H](C(=O)NC(C)(C)Cn2nc(C(F)(F)F)cc2-c2cnc(C)nc2)N2CC[C@@]3(C[C@@H]3c3ccc(-c4cnc5nn(C)cc5c4)cc3Cl)C2=O)cn1 (single isomer, unassigned; isomer 1) [Example 114] | 80.3 ± 0.191 | 1.79

Results, then the compound that gave them:

Row | Emax [%] | EC50 [nM] | SMILES
17 | 120 ± 5.11 | 0.234 | CN1CCC(n2cc(C(F)(F)F)nc2CC(C)(C)NC(=O)[C@@H](Cc2cnn(C(F)F)c2)N2CC[C@@]3(C[C@@H]3c3ccc(-c4cnc5nc(C6CC6)cn5c4)cc3Cl)C2=O)C1=O (single isomer, unassigned) [Example 146]
18 | 116 ± 2.13 | 0.359 | CC(C)(Cn1nc(C(F)(F)F)cc1-c1ccn(C2CC2)c(=O)c1)NC(=O)[C@@H](Cc1cnn(C(F)F)c1)N1CCC2(CC2c2ccc(-c3cnc4nc(C5CC5)cn4c3)nc2C2CC2)C1=O (single isomer, unassigned) [Example 166]
19 | 92.1 ± 0.883 | 0.753 | Cc1cn2cc(-c3ccc(C4CC45CCN([C@H](Cc4cnn(C(F)F)c4)C(=O)NC(C)(C)Cn4nc(C(F)(F)F)cc4-c4ccn(C6CC6)c(=O)c4)C5=O)c(C4CC4)n3)cnc2n1 (single isomer, unassigned) [Example 167]
20 | 15.2 ± 1.27 | 15.2 | Cn1cc(-c2cc(C(F)(F)F)nn2CC(C)(C)NC(=O)[C@@H](Cc2cnn(C(F)F)c2)N2CCC3(CC3c3ccc4cnn(C)c4c3)C2=O)cc(F)c1=O (single isomer, unassigned) [Example 184]
21 | 87.3 ± 0.526 | 4.65 | [2H]C([2H])([2H])n1cc(C[C@H](C(=O)NC(C)(C)Cn2nc(C(F)(F)F)cc2-c2cnc(C)nc2)N2CCC3(CC3c3ccc(-c4cnc5nn(C)cc5c4)nc3C(F)(F)F)C2=O)cn1 (single isomer, unassigned; isomer 1) [Example 115]
22 | 23.1 ± 0.52 | 127 | CC(=O)N1CCN(c2ccc(C3CC34CCN([C@H](Cc3cnn(C(F)F)c3)C(=O)NC(C)(C)Cn3nc(C(F)(F)F)cc3-c3cnc(C)nc3)C4=O)c(C(F)(F)F)n2)CC1 (single isomer, unassigned; isomer 1) [Example 116]
23 | 59.3 ± 1.52 | 4.02 | Cn1cc2cc(-c3ccc([C@H]4C[C@@]45CCN([C@H](Cc4cnn(C(F)F)c4)C(=S)NC(C)(C)Cn4nc(C(F)(F)F)cc4-c4cc(F)c(=O)n(C)c4)C5=O)c(F)c3)cnc2n1 (single isomer, unassigned; isomer 1) [Example 118]
